Among the data in patent US12435092B2, “Substituted imidazo[1,2-A]quinazolines as inhibitors of PARG” (858 Therapeutics, Inc., priority 2022, dated 2025) are IC50 values, retold here.

The experiment concerns the target T1, cellular PARG (Homo sapiens, UniProt Q86W56).
T1 construct: endogenous in cells; host or cells: HeLa
The experiment can be described thus: Nuclear PAR accumulation assay (immunofluorescence high-content imaging). Conditions: HeLa cells, 1 hour compound treatment then MMS 50 μg/mL for an additional hour. The class given is cell-based. An outline of the steps:
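HeLa cells pretreated 1 h at 37 °C with compound, then 1 h with 50 μg/mL MMS (final), methanol-fixed and immunostained for PAR with DAPI nuclear counterstain. Nuclear PAR intensity and percent PAR-positive cells quantified by high-content imaging (≥1,000 cells/well). IC50 by four-parameter logistic fit, normalized to 0.1% DMSO and reference-compound controls.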

T1 sequence (Q86W56 whole entry): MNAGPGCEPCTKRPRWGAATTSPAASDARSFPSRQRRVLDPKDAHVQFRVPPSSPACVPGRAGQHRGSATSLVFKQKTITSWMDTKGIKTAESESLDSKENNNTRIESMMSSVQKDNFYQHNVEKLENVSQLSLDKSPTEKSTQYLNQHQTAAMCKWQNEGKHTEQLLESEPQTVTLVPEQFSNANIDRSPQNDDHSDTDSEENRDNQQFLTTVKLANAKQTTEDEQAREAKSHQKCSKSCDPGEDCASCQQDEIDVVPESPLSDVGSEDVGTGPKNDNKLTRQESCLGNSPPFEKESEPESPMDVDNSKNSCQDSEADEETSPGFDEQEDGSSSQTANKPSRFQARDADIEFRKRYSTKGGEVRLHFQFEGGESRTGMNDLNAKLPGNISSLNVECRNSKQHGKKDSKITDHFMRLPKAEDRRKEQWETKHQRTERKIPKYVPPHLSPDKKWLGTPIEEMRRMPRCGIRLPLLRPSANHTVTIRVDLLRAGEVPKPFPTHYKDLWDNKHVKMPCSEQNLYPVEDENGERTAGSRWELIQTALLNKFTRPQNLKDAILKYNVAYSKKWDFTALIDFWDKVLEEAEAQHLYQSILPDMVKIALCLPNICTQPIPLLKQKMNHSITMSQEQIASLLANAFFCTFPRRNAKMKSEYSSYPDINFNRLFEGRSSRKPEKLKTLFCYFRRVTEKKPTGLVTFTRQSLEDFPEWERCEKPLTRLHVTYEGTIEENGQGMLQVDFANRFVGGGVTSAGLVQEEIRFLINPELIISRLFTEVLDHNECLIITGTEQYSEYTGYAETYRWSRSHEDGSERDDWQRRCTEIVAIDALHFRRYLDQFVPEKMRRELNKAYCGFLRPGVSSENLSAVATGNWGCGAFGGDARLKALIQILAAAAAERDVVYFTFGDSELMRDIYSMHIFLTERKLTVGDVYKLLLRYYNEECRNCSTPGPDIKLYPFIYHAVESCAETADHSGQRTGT

`C[C@@H]1CN=C2N(Cc3cnn(C)c3)C(=O)c3cc(S(=O)(=O)NC4(C)CC4)cc(C#N)c3N21` [Example 138, (R)-9-cyano-1-methyl-4-((1-methyl-1H-pyrazol-4-yl)methyl)-N-(1-methylcyclopropyl)-5-oxo-1,2,4,5-tetrahydroimidazo[1,2-a]quinazoline-7-sulfonamide]: the IC50 – broadly, the midpoint of a concentration-inhibition curve – lay in the range of 100 to 1000 nM.
